Source: EP4806890A1, “CRYSTALLINE COMPOUND OR BASIC SALT THEREOF, PREPARATION METHOD THEREFOR, AND USE THEREOF” (Abbisko Therapeutics Co., Ltd., priority 2023, dated 2025)
“Also recorded” adds a separate entry of the source. Structures can show the parent of a compound that is named as a salt.

Key:
[1] = Later pharmaceutical research on the trifluoroacetate freeze-dried amorphous compound of WO2019149183A1 (solid-state properties); assay type: physicochemical
T cells = conditions: statement of the background, WO2019149183A1; cited from earlier work
PD-1/PD-L1 = PD-1/PD-L1 (Homo sapiens, UniProt Q9NZQ7); conditions: statement of the background, WO2019149183A1; cited from earlier work
Sequence of PD-1/PD-L1 (Q9NZQ7 19-238 limits assumed): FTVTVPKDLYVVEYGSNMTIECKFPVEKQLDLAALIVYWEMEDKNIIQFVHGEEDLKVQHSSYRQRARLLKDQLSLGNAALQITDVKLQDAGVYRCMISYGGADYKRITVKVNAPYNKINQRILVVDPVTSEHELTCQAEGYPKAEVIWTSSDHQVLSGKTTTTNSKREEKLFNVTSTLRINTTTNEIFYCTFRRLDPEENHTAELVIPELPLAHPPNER

[2] = Stability determination (thermal stability and photostability, HPLC purity, appearance, XRPD); assay type: physicochemical; conditions: for XRPD: crystalline form found
Method: (§1) The stability and solubility of the crystalline free form of the compound of formula (I) or the basic salt thereof of the present application were determined by HPLC.
An appropriate amount of the sample was placed in a vial and left to stand at 50 °C, 80 °C or 50 °C & 75% RH (open) for 7 days to evaluate thermal stability. An appropriate amount of the sample was placed in a transparent vial, […] evaluation under conditions of overall near-ultraviolet energy of 1.2 * 10^6 Lux·hr and no less than 200 W·hr/m2.

[3] = Solubility determination (equilibrium solubility, 24 hrs stirring at room temperature, HPLC); assay type: physicochemical; conditions: for Equilibrium solubility: target concentration 2000 µg/mL, 24 hrs; for pH24 hrs: pH of the filtrate after 24 hrs
Method: as §1
The desired amount of the compound was weighed into a glass vial, and the desired amount of a vehicle was added. A stir bar was added to the vial, and the mixture was stirred at room temperature for 24 hrs. After 24 hrs, the appearance of the sample was observed. An appropriate amount of the sample was filtered through a PVDF 0.45 µm filter membrane, and the filtrate was collected. The pH value of the filtrate was determined, and the sample was diluted with MeOH. The diluted sample was injected into an HPLC system to determine the concentration.

[4] = Hygroscopic behavior test by dynamic vapor sorption (DVS); assay type: physicochemical
Description: The experimental method of characterizing the crystalline free form of the compound of formula (I) or the basic salt thereof using dynamic vapor sorption (DVS) is as follows: a small amount of the crystalline sample was placed in a precision sample tray that was compatible with the instrument; after the sample was loaded, the sample tray was placed into the instrument for analysis. In this patent, the instruments used for dynamic vapor sorption were all the DVS Intrinsic plus model, and the following experimental parameters were set: nitrogen was used as the carrier gas, a constant temperature of 25 °C was set, the rate of mass percentage change over a unit of time (dm/dt) = 0.002%/min was used as a criterion for determining if equilibrium is reached, and the program humidity change cycle was set to 50-95-0-95-50% RH; within the range of 0-90% RH, a change of 10% RH was taken as a step, and within the range of 90% RH-95% RH, a change of 5% RH was taken as a step.
In the present invention, the hygroscopic weight increases (hygroscopic weight increase/weight before hygroscopy * 100%) of various crystalline forms under various relative humidity conditions were determined using the dynamic vapor sorption method, and the hygroscopicity of different crystalline compounds was evaluated.

[5] = Aluminum foil light exposure control, 9.2 days
[6] = Transparent light exposure, 9.2 days
[7] = pH 4.7, 50 mM acetic acid buffer
[8] = pH 6.8, 50 mM phosphoric acid buffer
[9] = Relative humidity 0.0 % at 25 °C
[10] = Relative humidity 10.0 % at 25 °C
[11] = Relative humidity 20.0 % at 25 °C
[12] = Relative humidity 30.0 % at 25 °C
[13] = Relative humidity 40.0 % at 25 °C
[14] = Relative humidity 50.0 % at 25 °C
[15] = Relative humidity 60.0 % at 25 °C
[16] = Relative humidity 70.0 % at 25 °C
[17] = Relative humidity 80.0 % at 25 °C
[18] = Brown vial light exposure control, 9.2 days

Cc1c(NC(=O)c2cc(C3CC3)c(CN3CCCC[C@H]3C(=O)O)cn2)cccc1-c1cccc(NC(=O)c2cc(C3CC3)c(CN3CCCC[C@H]3C(=O)O)cn2)c1C [compound of formula (I), (2S,2'S)-1,1'-(((((2,2'-dimethyl-[1,1'-biphenyl]-3,3'-diyl)bis(azanediyl))bis(carbonyl))bis(4-cyclopropylpyridine-6,3-diyl))bis(methylene))bis(piperidine-2-carboxylic acid)]
hygroscopicity (in words) [1]: very hygroscopic
solubility (in words) [1]: poor solubility
activation of T cells at the cellular level (T cells): enhance or restore the activation of T cells
inhibitory effect on the protein interaction of PD-1/PD-L1 (PD-1/PD-L1): strong inhibitory effect

Cc1c(NC(=O)c2cc(C3CC3)c(CN3CCCC[C@H]3C(=O)O)cn2)cccc1-c1cccc(NC(=O)c2cc(C3CC3)c(CN3CCCC[C@H]3C(=O)O)cn2)c1C [free-form crystalline form C, (2S,2'S)-1,1'-(((((2,2'-dimethyl-[1,1'-biphenyl]-3,3'-diyl)bis(azanediyl))bis(carbonyl))bis(4-cyclopropylpyridine-6,3-diyl))bis(methylene))bis(piperidine-2-carboxylic acid)]
physical and chemical stability (in words) ([2]; 50 °C, 50 °C/75% RH (open), 80 °C for 7 days and photostress for 10 days): extremely high physical and chemical stability
Appearance ([2]; 50 °C, 7 days): White powder
Purity (%) ([2]; 50 °C, 7 days): 98.31%
Appearance ([2]; 50 °C/75%RH, 7 days): White powder
Purity (%) ([2]; 50 °C/75%RH, 7 days): 98.43%
Appearance ([2]; 80 °C, 7 days): White powder
Purity (%) ([2]; 80 °C, 7 days): 97.90%
Appearance [2, 5]: White powder
Purity (%) [2, 5]: 98.51%
Appearance ([2]; Initial, 0 days): White powder
Purity (%) ([2]; Initial, 0 days): 98.42%
Appearance [2, 6]: White powder
Purity (%) [2, 6]: 97.91%
XRPD ([2]; 50 °C, 7 days): Free-form crystalline form C
XRPD ([2]; 50 °C/75%RH, 7 days): Free-form crystalline form C
XRPD ([2]; 80 °C, 7 days): Free-form crystalline form C
XRPD [2, 5]: Free-form crystalline form C
XRPD ([2]; Initial, 0 days): Free-form crystalline form C
XRPD [2, 6]: Free-form crystalline form C
Equilibrium solubility ([3]; FaSSGF): 8.9 µg/mL
Equilibrium solubility ([3]; FaSSIF): 3.21 µg/mL
Equilibrium solubility ([3]; FeSSIF): 5.34 µg/mL
Equilibrium solubility ([3]; Water, room temperature): 3.84 µg/mL
solubility (in words) ([3]; buffer system having a pH of 1.2, compared to the other test conditions): improved solubility
Equilibrium solubility ([3]; pH 1.2, HCl 100 mM): 18.92 µg/mL
Equilibrium solubility [3, 7]: 3.3 µg/mL
Equilibrium solubility [3, 8]: 2.31 µg/mL
pH24 hrs ([3]; FaSSGF): 1.56
pH24 hrs ([3]; FaSSIF): 6.41
pH24 hrs ([3]; FeSSIF): 4.90
pH24 hrs ([3]; Water): 6.78
pH24 hrs ([3]; pH 1.2, HCl 100 mM): 1.30
pH24 hrs [3, 7]: 4.77
pH24 hrs [3, 8]: 6.89
hygroscopicity (in words) ([4]; DVS, 25 °C): moderately hygroscopic; also recorded: moderate hygroscopicity
Hygroscopic weight increase (%) [4, 9]: 0.00%
Hygroscopic weight increase (%) [4, 10]: 0.50%
Hygroscopic weight increase (%) [4, 11]: 0.75%
Hygroscopic weight increase (%) [4, 12]: 0.80%
Hygroscopic weight increase (%) [4, 13]: 1.20%
Hygroscopic weight increase (%) [4, 14]: 1.35%
Hygroscopic weight increase (%) [4, 15]: 1.50%
Hygroscopic weight increase (%) [4, 16]: 1.75%
Hygroscopic weight increase (%) [4, 17]: 2.21%
Hygroscopic weight increase (%) ([4]; Relative humidity 90.0 % at 25 °C): 2.95%
crystalline form changes after DVS testing [4]: no crystalline form changes

Cc1c(NC(=O)c2cc(C3CC3)c(CN3CCCC[C@H]3C(=O)O)cn2)cccc1-c1cccc(NC(=O)c2cc(C3CC3)c(CN3CCCC[C@H]3C(=O)O)cn2)c1C [crystalline form A of disodium salt hydrate] [(2S,2'S)-1,1'-(((((2,2'-dimethyl-[1,1'-biphenyl]-3,3'-diyl)bis(azanediyl))bis(carbonyl))bis(4-cyclopropylpyridine-6,3-diyl))bis(methylene))bis(piperidine-2-carboxylic acid)]
physical and chemical stability (in words) ([2]; 50 °C, 50 °C/75% RH or brown light exposure): relatively high physical and chemical stability
Appearance ([2]; 50 °C, 7 days): White powder
Purity (%) ([2]; 50 °C, 7 days): 99.45%
Appearance ([2]; 50 °C/75%RH, 7 days): White powder
Purity (%) ([2]; 50 °C/75%RH, 7 days): 99.46%
Appearance ([2]; 80 °C, 7 days): White powder
Purity (%) ([2]; 80 °C, 7 days): 99.34%
Appearance [2, 5]: White powder
Purity (%) [2, 5]: 99.51%
Appearance [2, 18]: White powder
Purity (%) [2, 18]: 99.50%
Appearance ([2]; Initial, 0 days): White powder
Purity (%) ([2]; Initial, 0 days): 99.38%
Appearance [2, 6]: White powder
Purity (%) [2, 6]: 99.22%
XRPD ([2]; 50 °C, 7 days): Crystalline form A of disodium salt
XRPD ([2]; 50 °C/75%RH, 7 days): Crystalline form A of disodium salt
XRPD ([2]; 80 °C, 7 days): Crystalline forms A + B of disodium salt
XRPD [2, 5]: Crystalline form A of disodium salt
XRPD [2, 18]: Crystalline form A of disodium salt
XRPD ([2]; Initial, 0 days): Crystalline form A of disodium salt
XRPD [2, 6]: Crystalline forms A + B of disodium salt
crystalline form transformation (in words) ([2]; high temperature and light exposure): underwent crystalline form transformation; also recorded: undergoes crystalline form transformation
chemical stability (in words) ([2]; various stability testing conditions, incl. high temperature and light exposure): good chemical stability; also recorded: relatively high chemical stability
Equilibrium solubility ([3]; FaSSGF): 22 µg/mL
Equilibrium solubility ([3]; FaSSIF): 303 µg/mL
Equilibrium solubility ([3]; FeSSIF): > 2000 µg/mL
Equilibrium solubility ([3]; Water, room temperature): > 2000 µg/mL
Equilibrium solubility ([3]; pH 1.2, HCl 100 mM): 1120 µg/mL
Equilibrium solubility [3, 7]: 25 µg/mL
Equilibrium solubility [3, 8]: 34 µg/mL
pH24 hrs ([3]; FaSSGF): 1.73
pH24 hrs ([3]; FaSSIF): 6.93
pH24 hrs ([3]; FeSSIF): 7.95
pH24 hrs ([3]; Water): 9.61
pH24 hrs ([3]; pH 1.2, HCl 100 mM): 1.01
pH24 hrs [3, 7]: 4.61
pH24 hrs [3, 8]: 6.88
Hygroscopic weight increase (%) [4, 9]: 0.00%
Hygroscopic weight increase (%) [4, 10]: 2.40%
Hygroscopic weight increase (%) [4, 11]: 7.45%
Hygroscopic weight increase (%) [4, 12]: 9.28%
Hygroscopic weight increase (%) [4, 13]: 10.62%
Hygroscopic weight increase (%) [4, 14]: 11.64%
Hygroscopic weight increase (%) [4, 15]: 12.43%
Hygroscopic weight increase (%) [4, 16]: 13.25%
Hygroscopic weight increase (%) [4, 17]: 14.59%
crystalline form changes after DVS testing [4]: no crystalline form changes
weight increased ([4]; at 80% RH): more than 10%
